According to patent US20250382255A1, “ERYTHRITOL ESTER OF PHENYL BUTYRIC ACID” (AAYAM THERAPEUTICS LLC, priority 2022, published 2025):
Read-outs that look alike come from different tables or passages of the source.

Assay: Pharmacokinetics (PK) study, plasma exposure of PBA after oral dosing of PBA analogues
Format: in vivo, SD rats
Description: Pharmacokinetics (PK) study was carried out to evaluate the plasma exposure of two PBA analogues (ATX-2022-018 and ATX-2022-034), when dosed orally (PO) at 22.5 mg/kg in 50% Propylene glycol. Dosing was done in overnight fasted SD rats (n=6). After oral (PO) administration blood was collected by serial bleeding at 8 different time points in heparinized tubes. Blood samples were centrifuged at 10,000 rpm for 5 min. at 4° C. to obtain the plasma, which were aspirated into separate labeled tubes and stored at −80° C. Extraction solvent was added to plasma (150 μL 0.1% acetic acid in water: 0.1% acetic acid Methanol, 20:80) was vortexed and shaken on shaker for 10 minutes, centrifuged at 10,000 rpm for 10 minutes at 4° C. Supernatant was used for LC-MS analysis. Parent drug generated that is PBA was monitored by LC-MS (API3200).
Details of the LC column and mobile phase used for the analysis is provided below: • Column: Gemini NX C18, 50 mm*4.6 mm*3.5μ • Mobile Phase: A: 0.1% Acetic in Water • B: 0.1% Acetic acid in Methanol • Flow rate: 0.600 mL/min, gradient program
Acetonitrile and plasma calibration curves were generated and percentage of drug recovery from plasma determined. Quantitative analysis was done by liquid chromatography tandem mass spectrometer (API3200 LC-MS/MS). Cmax, Tmax, AUC and t½ were calculated using Graph Pad PRISM version 5.04.

[1] = PBA monitored in plasma by LC-MS, overnight fasted SD rats, PO 22.5 mg/kg in 50% Propylene glycol
[2] = SD, rat, in vivo, po, 22.5 mg/kg

| Compound | AUC [1] | CL [1] [mL/h] | MRT [1] [min] | Tmax [1] [min] | Vd [1] | Cmax (PBA monitored in plasma by LC-MS, overnight fasted SD rats, PO 22.5 mg/kg in 50% Propylene glycol, read-out: Cmax) [µM] | AUC [2] | CHANGE of AUC (Increase) [2] | CHANGE of CL (Decrease) [2] | CHANGE of Cmax (Increase) [2] | CHANGE of MRT (Increase) [2] | CHANGE of Vd (Decrease) [2] | CL [2] [mL/h] | Cmax [2] [µM] | MRT [2] [min] | Tmax [2] [min] | Vd [2] |
| --- | --- | --- | --- | --- | --- | --- | --- | --- | --- | --- | --- | --- | --- | --- | --- | --- | --- |
| O=C(CCCc1ccccc1)OC[C@H](OC(=O)CCCc1ccccc1)[C@H](COC(=O)CCCc1ccccc1)OC(=O)CCCc1ccccc1 [THREITOL ANALOG OF PBA, (2S,3S)-butane-1,2,3,4-tetrayl-tetrakis(4-phenylbutanoate), reference compound] | 37,594 nM · h | 600 | 24 | 18 | 7,161 ml | 12.5 | – | – | – | – | – | – | – | – | – | – | – |
| O=C(CCCc1ccccc1)OC[C@H](OC(=O)CCCc1ccccc1)[C@@H](COC(=O)CCCc1ccccc1)OC(=O)CCCc1ccccc1 [ERYTHRITOL ANALOG OF PBA, (2R,3S)-butane-1,2,3,4-tetrayl tetrakis(4-phenylbutanoate)] | – | – | – | – | – | – | 104,814 nM · h | Increase 3-fold | Decrease 2.7-fold | Increase 4-fold | Increase 1.5-fold | Decrease 2.75-fold | 225 | 51.3 | 36 | 12 | 2,600 ml |
